From ChEMBL document CHEMBL3102695, “New melatonin (MT1/MT2) ligands: design and synthesis of (8,9-dihydro-7H-furo[3,2-f]chromen-1-yl) derivatives” (Bioorg Med Chem, 2014)
Activity calls are given as the source filed them. The rule behind the calls is not given here.

Key:
[1] = Intrinsic activity at human melatonin MT2 receptor expressed in CHO cells assessed as [35S]GTPgammaS binding after 1 hr relative to melatonin; format: functional
[2] = Displacement of 2-[I]iodomelatonin from human melatonin MT1 receptor after 120 mins
[3] = Displacement of 2-[I]iodomelatonin from human melatonin MT2 receptor after 120 mins
[4] = Intrinsic activity at human melatonin MT2 receptor expressed in CHO cells assessed as [35S]GTPgammaS binding after 1 hr; format: functional, cell-based
[5] = Intrinsic activity at human melatonin MT1 receptor expressed in CHO cells assessed as [35S]GTPgammaS binding after 1 hr; format: functional, cell-based
[6] = Intrinsic activity at human melatonin MT1 receptor expressed in CHO cells assessed as [35S]GTPgammaS binding after 1 hr relative to melatonin; format: functional
Rattus norvegicus = assay: Decrease of anticipation of social defeat in rat assessed as reduction of duration of immobility and vocalization at 40 mg/kg, ip; format: functional, organism-based; parameters: dose 40 mg/kg
Mus musculus [7] = assay: Anxiolytic activity in C3H/he mouse assessed as increase in time spent in light box at 10 to 40 mg/kg, po by light/dark box test; format: functional, organism-based
Mus musculus [8] = assay: Increase of resynchronization of activity rhythm in C3H/he mouse at 20 mg/kg, ip; format: functional; conditions: route intraperitoneal
Mus musculus [9] = assay: Anxiolytic activity in C3H/he mouse assessed as increase in number of transitions at 10 to 40 mg/kg, po by light/dark box test; format: functional, organism-based
Mus musculus [10] = assay: Increase of neophobia in C3H/he mouse assessed as time spent in unfamiliar compartment at 1 to 25 mg/kg, po; format: functional, organism-based
Mus musculus [11] = assay: Anxiolytic activity in C3H/he mouse assessed as increase in number of transitions at 20 to 40 mg/kg, po by light/dark box test; format: functional, organism-based
Mus musculus [12] = assay: Anxiolytic activity in C3H/he mouse assessed as increase in time spent in light box at 20 to 40 mg/kg, po by light/dark box test; format: functional, organism-based
Mus musculus [13] = assay: Increase of neophobia in C3H/he mouse assessed as time spent in unfamiliar compartment at 1 to 10 mg/kg, po; format: functional, organism-based

Ki [2] | Ki [3] | EC50 [4] | EC50 [5] | Compound | Emax [1] | Emax [6] | also measured
35 nM | 80 nM | 149 nM | 455 nM | COc1cccc(C(=O)c2cc3occ(CCNC(C)=O)c3c3c2OCCC3)c1 | 58% | 56% | 
823 nM |  |  |  | COc1ccccc1C(=O)c1cc2occ(CCNC(C)=O)c2c2c1OCCC2 |  |  | 
44 nM | 40 nM |  |  | CC(=O)NCCc1coc2cc(C(=O)c3ccccc3)c3c(c12)CCCO3 |  |  | 
105 nM | 2.7 nM |  |  | COc1ccc(C(=O)c2oc3ccc4c(c3c2CCNC(C)=O)CCCO4)cc1 |  |  | 
23 nM | 46 nM |  |  | CCCCNC(=S)NCCc1coc2ccc3c(c12)CCCO3 |  |  | 
5370 nM | 3860 nM |  |  | COc1ccc(C(=O)c2cc3occ(CCNC(C)=O)c3c3c2OCCC3)cc1 |  |  | 
0.07 nM | 0.08 nM | 1.5 nM | 2.5 nM | C=CCC(=O)NCCc1coc2ccc3c(c12)CCCO3 | 57% | 68% | 
14 nM | 13 nM | > 10000 nM | > 10000 nM | CC(=O)N(C)CCc1coc2ccc3c(c12)CCCO3 |  |  | 
9 nM | 13 nM |  |  | CC(=O)NCCc1coc2cc(Cc3cccc(C(F)(F)F)c3)c3c(c12)CCCO3 |  |  | 
0.97 nM | 0.1 nM |  |  | CCCC(=O)c1oc2ccc3c(c2c1CCNC(C)=O)CCCO3 |  |  | 
0.16 nM |  | 0.7 nM | 5.5 nM | COc1ccc2occ(CCNC(C)=O)c2c1 | 101% | 118% | 

Continued, molecule first:

Compound | Ki [2] | Ki [3] | EC50 [4] | EC50 [5] | Emax [1] | Emax [6] | also measured
C=CC(=O)NCCc1coc2ccc3c(c12)CCCO3 | 0.11 nM | 0.38 nM | 51 nM | 13 nM | 74% | 80% | 
C/C=C/C(=O)NCCc1coc2ccc3c(c12)CCCO3 | 1.3 nM | 2.6 nM | 14 nM | 61 nM | 65% | 92% | 
S=C(NCCc1coc2ccc3c(c12)CCCO3)NC1CC1 | 5.6 nM | 7.4 nM | 38 nM | 143 nM | 46% | 42% | 
CC(=O)NCCc1c(-c2cccc(O)c2)oc2ccc3c(c12)CCCO3 | 0.87 nM | 0.21 nM | 0.21 nM | 4.6 nM | 93% | 46% | 
C=CCc1oc2ccc3c(c2c1CCNC(C)=O)CCCO3 | 0.03 nM | 0.12 nM | 0.08 nM | 0.15 nM | 109% | 104% | 
COc1cccc(C(=O)c2oc3ccc4c(c3c2CCNC(C)=O)CCCO4)c1 | 130 nM | 0.83 nM |  |  |  |  | 
CCCNC(=O)NCCc1coc2ccc3c(c12)CCCO3 | 1.3 nM | 0.74 nM |  |  |  |  | 
CC(=O)NCCc1c(-c2cccc(CO)c2)oc2ccc3c(c12)CCCO3 | 2.2 nM | 0.67 nM | 0.3 nM | 8.5 nM | 67% | 32% | 
COc1cccc(-c2oc3ccc4c(c3c2CCNC(C)=O)CCCO4)c1 | 0.33 nM | 0.3 nM | 0.2 nM | 1.8 nM | 68% | 30% | 
CC(=O)NCCc1coc2ccc3c(c12)CCCO3 | 0.31 nM | 0.59 nM | 0.19 nM | 0.8 nM | 68% | 98% | Activity (Rattus norvegicus): Active; Activity (Mus musculus [7]): Active; Activity (Mus musculus [8]): 30%; Activity (Mus musculus [9]): Active; Activity (Mus musculus [10]): Active
CC(=O)NCCc1c(C(=O)c2cccc(C(F)(F)F)c2)oc2ccc3c(c12)CCCO3 | 326 nM | 2.6 nM | 16 nM | > 10000 nM | 44% |  | 
COc1ccccc1C(=O)c1oc2ccc3c(c2c1CCNC(C)=O)CCCO3 | 53 nM | 13 nM |  |  |  |  | 
CCCCNC(=O)NCCc1coc2ccc3c(c12)CCCO3 | 50 nM | 23 nM |  |  |  |  | 
O=C(CI)NCCc1coc2ccc3c(c12)CCCO3 | 0.07 nM | 0.08 nM | 0.1 nM | 0.2 nM | 78% | 121% | 
COc1ccc2[nH]cc(CCNC(C)=O)c2c1 [MELATONIN] | 0.23 nM |  | 0.4 nM | 1.7 nM |  |  | Activity (Mus musculus [11]): Active; Activity (Mus musculus [12]): Active; Activity (Mus musculus [13]): Active
CC(=O)NCCc1c(-c2ccccc2)oc2ccc3c(c12)CCCO3 | 0.04 nM | 0.14 nM | 0.07 nM | 0.12 nM | 104% | 107% | 
CC(=O)NCCc1coc2cc(C(=O)c3cccc(C(F)(F)F)c3)c3c(c12)CCCO3 | 34 nM | 29 nM |  |  |  |  | 
CCCNC(=S)NCCc1coc2ccc3c(c12)CCCO3 | 5.4 nM | 4.4 nM |  |  |  |  | 
C=Cc1oc2ccc3c(c2c1CCNC(C)=O)CCCO3 | 0.05 nM | 0.2 nM | 0.21 nM | 0.08 nM | 120% | 113% | 
